Values joined by “and” are separate entries in the source; they are usually repeats but may differ in a detail not shown here. Equal entries are not always repeated. Inconclusive results and toxic doses are left out. Rule for the calls: active = survival T/C of 150% or more; inactive = T/C below 125% in these data.
Test system: CD2F1 mice, L1210 leukemia ip, survival T/C
Assay: NCI In Vivo Anticancer Drug Screen. Data for tumor model L1210 Leukemia (intraperitoneal) in CD2F1 (CDF1) mice
Settings: higher = longer survival
Method in brief: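 Each value reflects a quotient of treated over vehicle control outcomes in mice with a transplanted tumor.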

[1] = endpoint: mean survival time, dose: 50.0 mg/kg/injection, schedule: Q01DX009 (ip), vehicle: saline with Tween-80
[2] = endpoint: mean survival time, dose: 100.0 mg/kg/injection, schedule: Q01DX009 (ip), vehicle: saline with Tween-80
[3] = endpoint: mean survival time, dose: 200.0 mg/kg/injection, schedule: Q01DX009 (ip), vehicle: saline with Tween-80
[4] = endpoint: mean survival time, dose: 100.0 mg/kg/injection, schedule: Q04DX002 (ip), vehicle: saline
[5] = endpoint: mean survival time, dose: 100.0 mg/kg/injection, schedule: Q04DX003 (ip), vehicle: saline
[6] = endpoint: mean survival time, dose: 12.5 mg/kg/injection, schedule: Q01DX009 (ip), vehicle: saline with Tween-80
[7] = endpoint: mean survival time, dose: 25.0 mg/kg/injection, schedule: Q01DX009 (ip), vehicle: saline with Tween-80

Measured: T/C

O=c1[nH]c2ccc(Br)cc2c(=O)o1
inactive: endpoint: mean survival time, dose: 100.0 mg/kg/injection, schedule: Q01DX009 (ip), vehicle: saline 104 % of control | endpoint: mean survival time, dose: 200.0 mg/kg/injection, schedule: Q01DX009 (ip), vehicle: saline 116 % of control | endpoint: mean survival time, dose: 400.0 mg/kg/injection, schedule: Q01DX009 (ip), vehicle: saline 108 % of control

CN(C)C(c1ccccc1)C(O)c1ccccc1 (stereo not drawn)
inactive: endpoint: mean survival time, dose: 75.0 mg/kg/injection, schedule: Q01DX001 (ip), vehicle: saline 103 % of control | endpoint: mean survival time, dose: 150.0 mg/kg/injection, schedule: Q01DX001 (ip), vehicle: saline 97 % of control

Cc1ccc(NC(=O)Oc2ccc(Br)cc2)cc1[N+](=O)[O-]
inactive: [1] 98 % of control | [2] 102 % of control | [3] 98 % of control

CNNC(=O)OC
inactive: endpoint: mean survival time, dose: 25.0 mg/kg/injection, schedule: Q04DX002 (ip), vehicle: saline 95 % of control | endpoint: mean survival time, dose: 50.0 mg/kg/injection, schedule: Q04DX002 (ip), vehicle: saline 98 % of control | [4] 121 % of control and 109 % of control

O=C(CNC1=NCCN1)Nc1ccc(NC(=O)c2ccc(C(=O)Nc3ccc(NC(=O)CNC4=NCCN4)cc3)cc2)cc1
inactive: endpoint: mean survival time, dose: 12.0 mg/kg/injection, schedule: Q01DX Z (ip), vehicle: carboxymethylcellulose (CMC) 102 % of control | endpoint: mean survival time, dose: 14.0 mg/kg/injection, schedule: Q01DX Z (ip), vehicle: carboxymethylcellulose (CMC) 106 % of control | endpoint: mean survival time, dose: 16.0 mg/kg/injection, schedule: Q01DX Z (ip), vehicle: carboxymethylcellulose (CMC) 102 % of control | endpoint: mean survival time, dose: 18.0 mg/kg/injection, schedule: Q01DX Z (ip), vehicle: carboxymethylcellulose (CMC) 106 % of control

O=c1[nH]c2c(ncn2C2OC3COP(=O)(O)OC3C2O)c2nccn12 (stereo not drawn)
inactive: endpoint: mean survival time, dose: 12.5 mg/kg/injection, schedule: Q01DX005 (ip), vehicle: distilled water + Tween-80 97 % of control | endpoint: mean survival time, dose: 25.0 mg/kg/injection, schedule: Q01DX005 (ip), vehicle: distilled water + Tween-80 97 % of control | endpoint: mean survival time, dose: 50.0 mg/kg/injection, schedule: Q01DX005 (ip), vehicle: distilled water + Tween-80 97 % of control | endpoint: mean survival time, dose: 100.0 mg/kg/injection, schedule: Q01DX005 (ip), vehicle: distilled water + Tween-80 100 % of control

CC1=CCC2(C)CCC(C(C)C)C2(O)CC1 (stereo not drawn)
inactive: [5] 101 % of control | endpoint: mean survival time, dose: 200.0 mg/kg/injection, schedule: Q04DX003 (ip), vehicle: saline 93 % of control | endpoint: mean survival time, dose: 400.0 mg/kg/injection, schedule: Q04DX003 (ip), vehicle: saline 102 % of control

CCCCCCCCCCS(=O)CC(CO)NC(=O)/C=C/c1c(C)[nH]c(=O)[nH]c1=O (stereo not drawn)
inactive: endpoint: mean survival time, dose: 0.37 mg/kg/injection, schedule: Q01DX009 (ip), vehicle: distilled water + Tween-80 102 % of control and 106 % of control | endpoint: mean survival time, dose: 0.75 mg/kg/injection, schedule: Q01DX009 (ip), vehicle: distilled water + Tween-80 110 % of control and 111 % of control | endpoint: mean survival time, dose: 1.5 mg/kg/injection, schedule: Q01DX009 (ip), vehicle: distilled water + Tween-80 113 % of control and 101 % of control | endpoint: mean survival time, dose: 3.0 mg/kg/injection, schedule: Q01DX009 (ip), vehicle: distilled water + Tween-80 114 % of control and 117 % of control | endpoint: mean survival time, dose: 6.0 mg/kg/injection, schedule: Q01DX009 (ip), vehicle: distilled water + Tween-80 117 % of control | endpoint: mean survival time, dose: 12.0 mg/kg/injection, schedule: Q01DX009 (ip), vehicle: distilled water + Tween-80 89 % of control and 96 % of control

c1cc[n+]2c(c1)-c1cccc[n+]1CCCC2
inactive: endpoint: mean survival time, dose: 75.0 mg/kg/injection, schedule: Q01DX009 (ip), vehicle: saline 108 % of control | endpoint: mean survival time, dose: 75.0 mg/kg/injection, schedule: Q04DX003 (ip), vehicle: saline 98 % of control | endpoint: mean survival time, dose: 150.0 mg/kg/injection, schedule: Q01DX009 (ip), vehicle: saline 100 % of control | endpoint: mean survival time, dose: 150.0 mg/kg/injection, schedule: Q04DX003 (ip), vehicle: saline 93 % of control | endpoint: mean survival time, dose: 300.0 mg/kg/injection, schedule: Q04DX003 (ip), vehicle: saline 96 % of control

CCCCN1C(=O)C(=O)N(c2cc(OC)ccc2OC)C1=O
inactive: [1] 86 % of control | [2] 90 % of control | [3] 86 % of control

O=C([O-])C1OC([n+]2ccccc2)C(O)C(O)C1O (stereo not drawn)
inactive: endpoint: median survival time, dose: 12.5 mg/kg/injection, schedule: Q01DX005 (ip), vehicle: saline 101 % of control | endpoint: median survival time, dose: 25.0 mg/kg/injection, schedule: Q01DX005 (ip), vehicle: saline 100 % of control | endpoint: median survival time, dose: 50.0 mg/kg/injection, schedule: Q01DX005 (ip), vehicle: saline 107 % of control | endpoint: median survival time, dose: 100.0 mg/kg/injection, schedule: Q01DX005 (ip), vehicle: saline 112 % of control | endpoint: median survival time, dose: 200.0 mg/kg/injection, schedule: Q01DX005 (ip), vehicle: saline 102 % of control

O=C(CCc1ccc(O)cc1)c1c(O)cc(O)cc1OC1OC(CO)C(O)C(O)C1O (stereo not drawn)
inactive: endpoint: mean survival time, dose: 100.0 mg/kg/injection, schedule: Q01DX001 (ip), vehicle: saline 102 % of control | endpoint: mean survival time, dose: 200.0 mg/kg/injection, schedule: Q01DX001 (ip), vehicle: saline 98 % of control | endpoint: mean survival time, dose: 400.0 mg/kg/injection, schedule: Q01DX001 (ip), vehicle: saline 104 % of control

O=C(CC(O)(C(F)(F)F)C(F)(F)F)c1cccc(C(F)(F)F)c1
inactive: endpoint: mean survival time, dose: 100.0 mg/kg/injection, schedule: Q01DX001 (ip), vehicle: saline with Tween-80 90 % of control | endpoint: mean survival time, dose: 200.0 mg/kg/injection, schedule: Q01DX001 (ip), vehicle: saline with Tween-80 108 % of control | endpoint: mean survival time, dose: 400.0 mg/kg/injection, schedule: Q01DX001 (ip), vehicle: saline with Tween-80 103 % of control

CCCCCCCCSC1=C(Cl)C(=O)C(OC)=C(OC)C1=O
inactive: endpoint: mean survival time, dose: 1.5 mg/kg/injection, schedule: Q01DX009 (ip), vehicle: saline with Tween-80 95 % of control | endpoint: mean survival time, dose: 3.0 mg/kg/injection, schedule: Q01DX009 (ip), vehicle: saline with Tween-80 98 % of control | endpoint: mean survival time, dose: 3.13 mg/kg/injection, schedule: Q01DX009 (ip), vehicle: saline with Tween-80 94 % of control | endpoint: mean survival time, dose: 6.25 mg/kg/injection, schedule: Q01DX009 (ip), vehicle: saline with Tween-80 89 % of control and 98 % of control | [6] 96 % of control and 104 % of control | [7] 96 % of control and 102 % of control

COc1cc2cc(c1Cl)N(C)C(=O)CC(OC(=O)CC(C)C)C1(C)OC1C(C)C1CC(O)(NC(=O)O1)C(OC)/C=C/C=C(C)C2 (stereo not drawn)
inactive: endpoint: mean survival time, dose: 3.8 micrograms/kg/injection, schedule: Q01DX009 (ip), vehicle: saline + alcohol 103 % of control | endpoint: mean survival time, dose: 7.5 micrograms/kg/injection, schedule: Q01DX009 (ip), vehicle: saline + alcohol 103 % of control | endpoint: mean survival time, dose: 15.0 micrograms/kg/injection, schedule: Q01DX009 (ip), vehicle: saline + alcohol 112 % of control | endpoint: mean survival time, dose: 30.0 micrograms/kg/injection, schedule: Q01DX009 (ip), vehicle: saline + alcohol 112 % of control | endpoint: mean survival time, dose: 60.0 micrograms/kg/injection, schedule: Q01DX009 (ip), vehicle: saline + alcohol 111 % of control

CC#CC(=O)SCCNC(=O)CCNC(C)=O
inactive: [6] 112 % of control | [7] 102 % of control | endpoint: mean survival time, dose: 25.0 mg/kg/injection, schedule: Q04DX003 (ip), vehicle: saline 105 % of control | [1] 108 % of control | endpoint: mean survival time, dose: 50.0 mg/kg/injection, schedule: Q04DX003 (ip), vehicle: saline 112 % of control | [2] 119 % of control | [5] 103 % of control

CN(Cc1ccccc1)Cc1ccccc1
inactive: [4] 100 % of control | endpoint: mean survival time, dose: 200.0 mg/kg/injection, schedule: Q04DX002 (ip), vehicle: saline 94 % of control

CC(=O)c1ccc[n+](CCc2c[nH]c3ccccc23)c1
inactive: endpoint: mean survival time, dose: 12.5 mg/kg/injection, schedule: Q01DX009 (ip), vehicle: saline sonified 103 % of control | endpoint: mean survival time, dose: 12.5 mg/kg/injection, schedule: Q04DX003 (ip), vehicle: saline with Tween-80 98 % of control | endpoint: mean survival time, dose: 25.0 mg/kg/injection, schedule: Q01DX009 (ip), vehicle: saline sonified 100 % of control | endpoint: mean survival time, dose: 25.0 mg/kg/injection, schedule: Q04DX003 (ip), vehicle: saline with Tween-80 104 % of control | endpoint: mean survival time, dose: 50.0 mg/kg/injection, schedule: Q01DX009 (ip), vehicle: saline sonified 103 % of control | endpoint: mean survival time, dose: 50.0 mg/kg/injection, schedule: Q04DX003 (ip), vehicle: saline with Tween-80 103 % of control

— PubChem BioAssay AID256 (DTP/NCI, 2004)
